Data taken from EP4570798A1, “AROMATIC HETEROCYCLIC CYCLOHEXYL AMINOALKYL PIPERIDINE DERIVATIVE, PREPARATION METHOD AND USE THEREOF” (Jiangsu NHWA Pharmaceutical Co., Ltd, priority 2022, dated 2024).
Where “and” joins values, the source holds several entries; their conditions need not be identical. Equal entries are not always repeated. Structures can show the parent of a compound that is named as a salt.

Columns and labels:
hERG potassium channel = hERG potassium channel (Homo sapiens, UniProt Q12809); test: In vitro hERG experiment (whole-cell patch clamp); assay type: cell-based; settings: for IC50: whole-cell patch clamp, tail current, room temperature; for hERG inhibition: functional activity lower than that of the pharmacodynamic target: hERG IC50 versus activity at pharmacodynamic target
Description: Extracellular fluid: 140 mM NaCl, 3.5 mM KCl, 1 mM MgCl2, 2 mM CaCl2, 10 mM Glucose, 10 mM HEPES, and 1.25 mM NaH2PO4, with the pH adjusted to 7.4 by NaOH.
Under an inverted microscope, recording electrodes were controlled by a glass electrode micromanipulator (micromanipulation) to contact with the cell. A negative voltage was applied to form a GΩ seal. After forming the GΩ seal, a rapid capacitance compensation was given. Under the continuous negative voltage, the cell membrane was ruptured to establish a whole-cell recording mode. In the whole-cell recording mode, a slow capacitance compensation was given, and the values of membrane capacitance and series resistance were recorded.
Voltage stimulation scheme for cellular hERG potassium current: the cell membrane clamping voltage was -80 mV; the voltage was first elevated from -80 mV to +30 mV, held for 2.5 s, and rapidly changed to and held at -50 mV for 4 s, thus exciting the hERG channel tail current. Data were acquired every 10 s. Leak current detection was performed at -50 mV.
The coverslip with seeded cells was placed in the recording chamber of the inverted microscope. Negative control and test compounds flowed through the recording chamber in an ascending order of concentration by gravity perfusion to quickly act on the cells. During the recording, the extracellular fluid was continuously circulated by a vacuum pump. The current detected in a cell in the negative control was used as the background for the cell. Each compound concentration was allowed to act for 5 min or until the current was stabilized. All experiments were performed at room temperature.
The current of each compound concentration was first normalized according to (peak tail current compound)/(peak tail current vehicle), and then the corresponding inhibition rate was calculated according to (1 - (peak tail current compound)/(peak tail current vehicle)). Basic statistics were calculated for each concentration, including mean, standard deviation (SD), standard error (SE), and replicates (n). […] Curve fitting and calculation of IC50 were performed by GraphPad Prism 5.0 software.

5-HT1A = target: T1, 5-HT1A (Homo sapiens, UniProt P08908); test: In vitro 5HT1A receptor function experiment (cAMP, forskolin-stimulated HEK293/5HT1A cells); assay type: cell-based; set-up: expressed in transfected cells; host or cells: HEK293; settings: for EC50: forskolin 1 µM; for Emax: maximum activation rate
T1 sequence (P08908 1-422): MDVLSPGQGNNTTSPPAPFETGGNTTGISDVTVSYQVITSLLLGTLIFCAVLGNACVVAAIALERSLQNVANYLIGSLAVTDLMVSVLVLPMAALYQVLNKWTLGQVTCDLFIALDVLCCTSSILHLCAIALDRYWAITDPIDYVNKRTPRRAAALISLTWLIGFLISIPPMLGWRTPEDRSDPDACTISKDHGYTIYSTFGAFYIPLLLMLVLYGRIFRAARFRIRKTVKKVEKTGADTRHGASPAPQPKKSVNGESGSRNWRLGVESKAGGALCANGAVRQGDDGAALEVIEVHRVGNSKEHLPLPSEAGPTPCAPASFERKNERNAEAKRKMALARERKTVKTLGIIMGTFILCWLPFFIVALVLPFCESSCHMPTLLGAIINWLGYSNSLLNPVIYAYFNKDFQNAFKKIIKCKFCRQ
Description: 1.1.1 Cell information: HEK293/5HT1A: a stably transfected cell strain HEK293/5HT1A constructed by adopting 5HT1A receptor lentivirus to infect HEK293; growth culture medium: DMEM, 10% FBS, and 0.6 µg/mL puro; and cryopreservation culture medium: 70% culture medium, 20% FBS, and 10% DMSO.

Dopamine D2L receptor = Dopamine D2L receptor (Homo sapiens, UniProt P14416); test: In vitro dopamine D2L receptor function experiment (cAMP, forskolin-stimulated HEK293/D2L cells); settings: for Emax: HEK293, read-out: D2L Emax
Description: • (1) Compound preparation: The test compounds and dopamine were diluted to a concentration of 200 nM for later use. • (2) Experimental buffer preparation: The 5× stimulation buffer was diluted to 1× with ddH2O, and IBMX was added to a final concentration of 0.5 mM. The mixture was mixed well for later use. • (3) The cells were digested with trypsin, and centrifugation was performed after the digestion was terminated. The cell pellet was resuspended in 10 mL of pre-warmed HBSS and centrifuged again. Then, 1 mL of stimulation buffer was added for resuspension, and 20 µL of the cell suspension was taken for cell counting. • (4) An appropriate amount of the cell suspension was taken and diluted to 0.4 × 10^6 cells/mL, and 5 µL of the diluted cell suspension was added to each well of a cell plate and centrifuged at 1000 rpm for 1 min. • (5) Compound dilution and transfer using bravo: The compounds were diluted 4-fold to obtain 8 concentration points in the compound plate. The diluted compounds in the whole plate were then transferred to a 384-well white plate using bravo and centrifuged at 1000 rpm for 1 min. • (6) The experimental plate was sealed and incubated at room temperature for 15 min. • (7) Forskolin, prepared with DMSO, was added at 25.1 nL/well using Tecan D300e, with a mother liquor concentration of 0.2 mM and a final concentration of 0.25 µM, followed by centrifugation at 1000 rpm for 1 min. • (8) The plate was sealed and incubated at room temperature for 45 min. • (9) cAMP standard curve preparation: A 4-fold serial dilution was performed to obtain 8 concentration points from a starting concentration of 2848 nM. Then, 10 µL of each dilution was taken and added to the experimental plate, with a maximum concentration of 712 nM. • (10) 5 µL of cAMP-d2 solution (stock solution diluted at 1:20 with lysis buffer) was added to the experimental plate, and the plate was centrifuged at 1000 rpm for 1 min. • (11) Then, 5 µL of Anti-cAMP-Cryptate solution (stock solution diluted at 1:20 with lysis buffer) was added to the experimental plate, and the plate was centrifuged at 1000 rpm for 1 min. • (12) The experimental plate was incubated at room temperature for 45 min and centrifuged at 1000 rpm for 1 min before reading. • (13) Plate reading was performed using Envision, with excitation light at 320 nm and emission lights at 620 nm and 665 nm. The derived data were analyzed, and the maximum activation rates Emax and EC50 of the compounds were calculated.

Dopamine D3 receptor = target: T2, Dopamine D3 receptor (Homo sapiens, UniProt P35462); test: In vitro dopamine D3 receptor function experiment (CHO-K1/D3/CRE reporter, chemiluminescence); assay type: cell-based; settings: for EC50: forskolin 0.4 µM; for Emax: maximum activation rate
T2 construct: expressed in transfected cells; host or cells: CHO-K1
Description: 3.1.1 Cell information: CHO-K1/D3/CRE constructed by referring to the method in Example 5 of CN114369578A.
The first day: cell plating • (1) The cultured cells were digested with trypsin, and after the digestion was terminated with culture medium, the cell suspension was transferred to a centrifuge tube and centrifuged at 750 rpm for 5 min. • (2) The supernatant was discarded, and the pellet was resuspended in an appropriate amount of plating medium.
The following day: experimental detection • (1) The test compounds were diluted to 0.2 mM with DMSO, and the reference compound dopamine was diluted to 0.02 mM. • (2) Compound dilution (4-fold dilution at 8 concentration points) was performed using Bravo, with the starting concentrations of the test compounds and the reference compound being 5 µM and 500 nM, respectively. […] The program selected was an ultrasensitive chemiluminescence detection program.

[1] = In vitro liver microsome stability, human; settings: for CLint(liver): Human liver microsomes; for CLint scaled at 1 µM / half-life at 1 µM / microsomal CLint at 1 µM: human, liver microsomes, pH 7.4
Description: (§1) • (1) Buffer preparation: 73.21 g of dipotassium hydrogen phosphate trihydrate and 10.78 g of potassium dihydrogen phosphate were dissolved in 4000 mL of ultrapure water. The pH of the solution was adjusted to within 7.40 ± 0.10 using 10% phosphoric acid or 1 M potassium hydroxide, resulting in a final concentration of 100 mM. • (2) Solution preparation and dilution: Stock solutions of the test compounds at a concentration of 10 mM were prepared in dimethyl sulfoxide (DMSO) and stored at 4 °C, and they were diluted into 100 µM working solutions with pure acetonitrile when used. A stock solution of the control compound testosterone at a concentration of 10 mM was prepared in DMSO and stored at -20 °C, and it was diluted into a 400 µM working solution with pure acetonitrile when used. • (3) Termination solution preparation: The termination solution was acetonitrile containing the internal standard buspirone. The prepared termination solution was stored in a refrigerator at 2-8 °C. • (4) Liver microsome solution preparation: Microsomes from various species (CD-1 mouse, SD rat, and human) were diluted into a 20× working solution using 100 mM potassium phosphate buffer. The final concentration of the microsomes in the reaction system was 0.5 mg/mL. • (5) Reduced nicotinamide adenine dinucleotide phosphate (NADPH) regeneration system preparation: Appropriate amounts of nicotinamide adenine dinucleotide phosphate (NADP), glucose-6-phosphate (G6P), magnesium chloride (MgCl2), and glucose-6-phosphate dehydrogenase (G6PDH) were weighed to prepare stock solutions at concentrations of 65.33 mM, 330 mM, 300 mM, and 250 Units/mL, respectively. The four stock solutions described above were each added to an appropriate amount of buffer, and the mixture was mixed well by gently inverting up and down. […] Several incubation plates were prepared and named T0, T5, T10, T20, T40, T60, PB60, and NCF60, respectively. […] The NCF60 plate was incubated for 60 min with potassium phosphate buffer replacing the NADPH regeneration system solution. The PB60 plate was incubated for 60 min with potassium phosphate buffer replacing the liver microsomes. Samples under all conditions were prepared in triplicate.
(§2) 2 µL of the test compound or control compound and 100 µL of microsome working solution (containing 1 mg/mL liver microsome protein) were added to each of the T0, T5, T10, T20, T40, T60, and NCF60 plates, and 2 µL of the test compound and 100 µL of potassium phosphate buffer were added to the PB60 plate. The plates described above were then pre-incubated in a 37 °C water bath for about 5 min.
(§3) After the pre-incubation, 600 µL of the termination solution was first added to the T0 samples, followed by the addition of 98 µL of NADPH regeneration system working solution. The plate was sealed, shaken, and then allowed to wait for simultaneous processing with subsequent samples. Except for the NCF60 plate where 98 µL of potassium phosphate buffer was added to each sample well, 98 µL of NADPH regeneration system working solution was added to each sample well of the other incubation plates to initiate the reaction. In the reaction system, the final concentrations of the test compound and the control compound were 1 µM and 4 µM, respectively, the concentration of the liver microsomes was 0.5 mg/mL, and the final concentrations of DMSO and acetonitrile were 0.01% (v/v) and 0.99% (v/v), respectively.
(§4) After incubation for an appropriate time (such as 5, 10, 20, 40, and 60 min), 600 µL of the termination solution containing the internal standard was added to each test compound sample and control compound well to terminate the reaction. The plates were sealed, shaken well, and then centrifuged at 4000 ×g and 4 °C for 15 min.

[2] = In vitro liver microsome stability, SD rat; settings: for CLint(liver): SD rat liver microsomes; for CLint scaled at 1 µM / half-life at 1 µM / microsomal CLint at 1 µM: SD, rat, liver microsomes, pH 7.4
Description: as §1, §2, §3, §4

[3] = In vitro liver microsome stability, CD-1 mouse; settings: for CLint scaled at 1 µM / half-life at 1 µM / microsomal CLint at 1 µM: CD-1, mouse, liver microsomes, pH 7.4; for CLint(liver): CD-1 mouse liver microsomes
Description: as §1, §2, §3, §4

[4] = system: tacrine-induced jaw tremors in rats; test: Tacrine-induced jaw tremor behavior in rats; assay type: in vivo, Sprague Dawley rats; settings: for Inhibition of tacrine-induced jaw tremors in rats: compared to the model group; for Minimum effective dose: tacrine-induced jaw tremor in rats, compared with rotigotine
Description: Test compounds: The free bases of Examples 28, 32, and 33 in the present invention, which were self-prepared.
Positive control compound: Rotigotine.
Molding drug: Tacrine, SIGMA, A3773-1G.
Vehicle: Normal saline, Cisen Pharmaceutical Co., Ltd., 2111060723.
Sprague Dawley rats, male, 10/group, Shanghai Slac Laboratory Animal Co., Ltd.
Drug preparation: The test compound was taken, added to the vehicle, and subjected to ultrasonication.
Administration route and method: Administration was performed by intraperitoneal injection.
Administration frequency and duration: single administration.
The rats were stratified according to body weight and then randomly divided into a model group, an administration group, and a control group. The rats were acclimatized for three days before the experiment. On the day of the experiment, the vehicle or drug was first injected intraperitoneally, followed by an intraperitoneal injection of tacrine at a dose of 5 mg/kg (body weight) after 60 min. After administration, the rats were placed in a transparent observation box, and the jaw tremor counting was started 10 min later. The continuous counting duration was 5 min, and the jaw tremor frequency in the rats within 5 min was recorded.
The experimental data were expressed as x ± SEM. Inhibition rate (%) = 100% × (jaw tremor frequency in the rats of the model group - jaw tremor frequency in the rats of the administration group)/jaw tremor frequency in the rats of the model group, where *: p < 0.05, **: p < 0.01, and ***: p < 0.001 vs vehicle.

[5] = 1 mg/kg, 3 mg/kg, and 10 mg/kg, intraperitoneal, single administration, free base

Chain of Dopamine D2L receptor (P14416 whole entry): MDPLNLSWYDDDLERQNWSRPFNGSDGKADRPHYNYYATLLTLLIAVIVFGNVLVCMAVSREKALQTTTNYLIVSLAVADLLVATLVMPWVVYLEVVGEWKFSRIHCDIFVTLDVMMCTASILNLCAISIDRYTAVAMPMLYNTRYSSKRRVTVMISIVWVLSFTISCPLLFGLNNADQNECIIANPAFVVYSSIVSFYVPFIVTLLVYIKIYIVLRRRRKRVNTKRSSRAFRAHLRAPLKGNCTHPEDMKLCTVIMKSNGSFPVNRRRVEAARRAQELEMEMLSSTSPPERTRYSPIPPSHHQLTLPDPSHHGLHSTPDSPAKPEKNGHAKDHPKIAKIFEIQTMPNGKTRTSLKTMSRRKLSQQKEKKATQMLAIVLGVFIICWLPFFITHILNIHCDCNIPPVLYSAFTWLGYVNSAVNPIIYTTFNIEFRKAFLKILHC
T2 sequence (P35462 whole entry, species assumed): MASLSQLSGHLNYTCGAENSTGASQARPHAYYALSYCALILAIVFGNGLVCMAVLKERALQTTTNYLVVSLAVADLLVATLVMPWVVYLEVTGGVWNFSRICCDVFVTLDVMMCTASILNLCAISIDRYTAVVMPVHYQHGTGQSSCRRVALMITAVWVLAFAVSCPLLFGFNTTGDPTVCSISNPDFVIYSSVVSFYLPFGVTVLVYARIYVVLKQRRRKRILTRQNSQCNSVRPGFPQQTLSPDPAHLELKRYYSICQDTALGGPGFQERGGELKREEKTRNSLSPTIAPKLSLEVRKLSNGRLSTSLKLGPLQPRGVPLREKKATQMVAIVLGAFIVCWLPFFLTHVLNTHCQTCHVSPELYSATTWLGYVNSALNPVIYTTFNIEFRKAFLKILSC
Chain of hERG potassium channel (Q12809 whole entry): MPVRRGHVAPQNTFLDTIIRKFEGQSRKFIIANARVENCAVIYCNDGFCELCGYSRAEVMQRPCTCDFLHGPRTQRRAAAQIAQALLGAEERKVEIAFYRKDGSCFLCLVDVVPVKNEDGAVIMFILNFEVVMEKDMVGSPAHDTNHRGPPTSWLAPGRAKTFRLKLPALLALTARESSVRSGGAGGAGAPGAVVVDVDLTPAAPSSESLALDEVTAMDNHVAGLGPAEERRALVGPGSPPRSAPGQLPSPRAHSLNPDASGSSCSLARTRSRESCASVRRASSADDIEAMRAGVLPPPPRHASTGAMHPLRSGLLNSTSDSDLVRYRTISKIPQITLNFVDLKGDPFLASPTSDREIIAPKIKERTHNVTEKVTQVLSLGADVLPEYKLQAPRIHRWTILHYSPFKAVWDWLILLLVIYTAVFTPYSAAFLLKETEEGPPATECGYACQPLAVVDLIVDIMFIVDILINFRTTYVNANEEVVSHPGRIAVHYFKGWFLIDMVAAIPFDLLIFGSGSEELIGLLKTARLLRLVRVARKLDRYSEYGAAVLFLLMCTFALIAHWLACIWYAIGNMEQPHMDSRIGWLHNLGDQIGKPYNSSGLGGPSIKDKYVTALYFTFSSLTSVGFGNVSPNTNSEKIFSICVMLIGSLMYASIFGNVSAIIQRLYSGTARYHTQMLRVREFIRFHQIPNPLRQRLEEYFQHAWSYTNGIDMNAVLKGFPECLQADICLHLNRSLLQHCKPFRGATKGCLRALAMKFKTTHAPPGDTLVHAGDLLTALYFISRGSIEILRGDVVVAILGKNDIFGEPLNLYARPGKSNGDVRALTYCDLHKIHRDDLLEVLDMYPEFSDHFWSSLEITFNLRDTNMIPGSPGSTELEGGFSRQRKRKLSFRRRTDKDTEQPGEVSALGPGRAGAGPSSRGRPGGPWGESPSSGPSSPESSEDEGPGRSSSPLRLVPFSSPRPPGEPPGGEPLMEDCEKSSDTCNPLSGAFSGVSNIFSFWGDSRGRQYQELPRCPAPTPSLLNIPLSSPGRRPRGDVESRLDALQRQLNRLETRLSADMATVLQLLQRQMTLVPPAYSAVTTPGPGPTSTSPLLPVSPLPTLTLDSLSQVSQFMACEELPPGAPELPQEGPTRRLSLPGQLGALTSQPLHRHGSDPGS

Row | SMILES | EC50 (5-HT1A) [nM] | Emax (5-HT1A) [%] | EC50 (Dopamine D3 receptor) [nM] | Emax (Dopamine D3 receptor) [%] | CLint(liver) [1] [mL/min/K g] | CLint scaled at 1 µM [1] [mL/min/kg] | half-life at 1 µM [1] [h] | microsomal CLint at 1 µM [1] [µL/min/mg] | CLint(liver) [2] [mL/min/K g] | CLint scaled at 1 µM [2] [mL/min/kg] | half-life at 1 µM [2] [h] | microsomal CLint at 1 µM [2] [µL/min/mg] | CLint scaled at 1 µM [3] [mL/min/kg] | half-life at 1 µM [3] [h] | microsomal CLint at 1 µM [3] [µL/min/mg] | CLint(liver) [3] [mL/min/K g] | IC50 (hERG potassium channel) | Inhibition of tacrine-induced jaw tremors in rats [4, 5] | Minimum effective dose [4] | also measured
1 | CCCN(CC1CCN(C(=O)OC)CC1)[C@@H]1CCc2nc(N)sc2C1 (stereo in doubt) [Comparative Example 3, Methyl (R)-4-(((2-amino-4,5,6,7-tetrahydrobenzo[d]thiazol-6-yl)(propyl)amino)methyl)piperidine-1-carboxylate hydrochloride, reference compound] | 203 | 97 |  |  |  |  |  |  |  |  |  |  |  |  |  |  | 5100 nM |  |  | EC50 (Dopamine D2L receptor): 0.95 nM; Emax (Dopamine D2L receptor): 112%
2 | CCCN(CCN1CCN(c2cccc(Cl)c2Cl)CC1)[C@H]1CCc2nc(N)sc2C1 [Comparative Example 1, (S)-N^6-(2-(4-(2,3-Dichlorophenyl)piperazin-1-yl)ethyl)-N^6-propyl-4,5,6,7-tetrahydrobenzo[d]thiazole-2,6-diamine hydrochloride, reference compound] | 203 | 99.1 |  |  |  |  |  |  |  |  |  |  |  |  |  |  |  |  |  | EC50 (Dopamine D2L receptor): 0.25 nM; Emax (Dopamine D2L receptor): 101%
3 | CCCN(CC1CCN(c2cccc3sccc23)CC1)[C@H]1CCc2nc(N)sc2C1 [Example 9, (S)-N^6-((1-(Benzo[b]thiophen-4-yl)piperidin-4-yl)methyl)-N^6-propyl-4,5,6,7-tetrahydrobenzo[d]thiazole-2,6-diamine] | 30.2 | 101 | 2.1 | 111 | 33.4 | 8.9 to 48.3 | 0.623 | 37.1 | 89.1 | 23.7 to 129 | 0.467 | 49.5 | 38.6 to 210 | 0.47 | 49.1 | 194.5 |  |  |  | 
4 | CCCN(CCc1cccs1)[C@H]1CCc2c(O)cccc2C1 [rotigotine, Rotigotine, reference compound] |  |  |  |  |  |  |  |  |  |  |  |  |  |  |  |  |  |  |  | Inhibition of tacrine-induced jaw tremors in rats ([4]; 10 mg/kg, positive control): significantly inhibited

Second part, led by results:

Row | EC50 (5-HT1A) [nM] | Emax (5-HT1A) [%] | EC50 (Dopamine D3 receptor) [nM] | Emax (Dopamine D3 receptor) [%] | CLint(liver) [1] [mL/min/K g] | CLint scaled at 1 µM [1] [mL/min/kg] | half-life at 1 µM [1] [h] | microsomal CLint at 1 µM [1] [µL/min/mg] | CLint(liver) [2] [mL/min/K g] | CLint scaled at 1 µM [2] [mL/min/kg] | half-life at 1 µM [2] [h] | microsomal CLint at 1 µM [2] [µL/min/mg] | CLint scaled at 1 µM [3] [mL/min/kg] | half-life at 1 µM [3] [h] | microsomal CLint at 1 µM [3] [µL/min/mg] | CLint(liver) [3] [mL/min/K g] | SMILES | IC50 (hERG potassium channel) | Inhibition of tacrine-induced jaw tremors in rats [4, 5] | Minimum effective dose [4] | also measured
5 | 51.6 | 114 | 1.1 | 109 | 27.7 | 8.9 to 48.3 | 0.75 | 30.8 | 76.9 | 23.7 to 129 | 0.54 | 42.7 | 38.6 to 210 | 1.33 | 17.4 | 68.8 | CCCN(CC1CCN(C(=O)c2ccccc2)CC1)[C@H]1CCc2nc(N)sc2C1 [Example 17, (S)-(4-(((2-Amino-4,5,6,7-tetrahydrobenzo[d]thiazol-6-yl)(propyl)amino)methyl)piperidin-1-yl)(phenyl)methanone] |  |  |  | 
6 | 122 | 103 |  |  | 1.0 | < 8.9 | 19.7 | 1.1 | 2.7 | < 23.7 | 14.8 | 2.8 | < 38.6 | 6.57 | 13.9 | 13.4 | CCCN(CC1CCN(C(=O)c2cnn(C)c2)CC1)[C@H]1CCc2nc(N)sc2C1 [Example 28, (S)-(4-(((2-Amino-4,5,6,7-tetrahydrobenzo[d]thiazol-6-yl)(propyl)amino)methyl)piperidin-1-yl)(1-methyl-1H-pyrazol-4-yl)methanone] | 20000 nM and 23300 nM | significantly inhibited | lower than that of the positive control drug | 
7 | 25.7 | 102 | 1.3 | 120 | 10.3 | 8.9 to 48.3 |  | 11.5 | 38.5 | 23.7 to 129 | 1.08 | 21.4 | 38.6 to 210 |  | 11.5 | 45.5 | CCCN(CC1CCN(C(=O)N(C)C)CC1)[C@H]1CCc2nc(N)sc2C1 [Example 32, (S)-4-(((2-Amino-4,5,6,7-tetrahydrobenzo[d]thiazol-6-yl)(propyl)amino)methyl)-N,N-dimethylpiperidine-1-carboxamide] | 20000 nM and 17800 nM | significantly inhibited | lower than that of the positive control drug | hERG inhibition: functional activity lower than that of the pharmacodynamic target (hERG potassium channel): ≥ 1000 fold
8 | 162 | 92.7 | 1.1 | 107 | 2.6 | < 8.9 |  | 2.9 | 27.3 | 23.7 to 129 | 1.52 | 15.2 | 38.6 to 210 |  | 12.6 | 50.0 | CCCN(CC1CCN(C(=O)N2CCOCC2)CC1)[C@H]1CCc2nc(N)sc2C1 [Example 33, (S)-(4-(((2-Amino-4,5,6,7-tetrahydrobenzo[d]thiazol-6-yl)(propyl)amino)methyl)piperidin-1-yl)(morpholino)methanone] | 20000 nM and 20200 nM | significantly inhibited | lower than that of the positive control drug | hERG inhibition: functional activity lower than that of the pharmacodynamic target (hERG potassium channel): ≥ 1000 fold
